Measurements as given in patent publication US8716475B2, “2-aminopyrimidine modulators of the histamine H4 receptor” (Janssen Pharmaceutica NV, priority 2007, dated 2014).

Target: T1, human H4 receptor (Homo sapiens, UniProt Q9H3N8)
T1 construct: expressed in transfected cells
Assay: Binding Assay on Recombinant Human Histamine H4 Receptor
Details: Table 1; [3H] histamine competition binding, membranes of SK-N-MC cells transfected with human H4 receptor; average of results
Outline: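 Radioligand binding used membranes from SK-N-MC cells stably or transiently expressing human H4, prepared in 50 mM Tris/5 mM EDTA. Nonspecific binding was defined with 100 μM histamine. Bound radioactivity was counted after filtration on PEI-treated GF/C filters, and ">" values are the highest concentration tested.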

T1 sequence (Q9H3N8 whole entry): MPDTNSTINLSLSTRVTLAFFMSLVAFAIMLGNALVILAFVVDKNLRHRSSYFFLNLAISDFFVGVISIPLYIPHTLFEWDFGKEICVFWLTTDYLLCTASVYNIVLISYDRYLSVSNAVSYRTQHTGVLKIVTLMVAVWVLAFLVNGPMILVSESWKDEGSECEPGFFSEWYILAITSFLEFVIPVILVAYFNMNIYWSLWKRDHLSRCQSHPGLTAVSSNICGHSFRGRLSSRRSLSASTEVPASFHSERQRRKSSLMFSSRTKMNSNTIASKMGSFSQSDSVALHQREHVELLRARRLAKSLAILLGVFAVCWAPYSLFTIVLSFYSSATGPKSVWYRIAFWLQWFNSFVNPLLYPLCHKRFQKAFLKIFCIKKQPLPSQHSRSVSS

**Q.** How did the Ki turn out when Cc1cc(N2CCN(C)CC2)nc(N)n1 [Example 22, 4-Methyl-6-(4-methyl-piperazin-1-yl)-pyrimidin-2-ylamine] was run?
**A.** Its Ki is 18 nM.

**Q.** How did the Ki turn out when Cc1nc(N)nc(N2CC3CCNC3C2)c1C (stereo not drawn) [Example 29, 4-(cis-Hexahydro-pyrrolo[3,4-b]pyrrol-5-yl)-5,6-dimethyl-pyrimidin-2-ylamine] was run?
**A.** The Ki was over 10000 nM.

**Q.** How did the Ki turn out when CN1CCN(c2cc(C3CC3)nc(N)n2)CC1 [Example 40, 4-Cyclopropyl-6-(4-methyl-piperazin-1-yl)-pyrimidin-2-ylamine] was run?
**A.** The Ki was 8 nM.

**Q.** CN1C[C@@H]2CN(c3cc(C4CCC4)nc(N)n3)C[C@@H]2C1 [Example 49, 4-Cyclobutyl-6-(cis-5-methyl-hexahydro-pyrrolo[3,4-c]pyrrol-2-yl)-pyrimidin-2-ylamine] was tested. Which Ki did it give?
**A.** Its Ki is 50 nM.

**Q.** CCc1cc(N2C[C@H]3CNC[C@H]3C2)nc(N)n1 [Example 38, 4-Ethyl-6-(cis-hexahydro-pyrrolo[3,4-c]pyrrol-2-yl)-pyrimidin-2-ylamine] was tested. Which Ki did it give?
**A.** The Ki was 559 nM.

**Q.** How did the Ki turn out when Nc1nc2c(c(N3C[C@H]4CCCN[C@H]4C3)n1)CCCC2 [Example 72, (R,R)-4-(Octahydro-pyrrolo[3,4-b]pyridin-6-yl)-5,6,7,8-tetrahydro-quinazolin-2-ylamine] was run?
**A.** Its Ki is 14 nM.

**Q.** CCc1cc(N2C[C@H]3CCCN[C@H]3C2)nc(N)n1 [Example 39, (R,R)-(4-Ethyl-6-octahydro-pyrrolo[3,4-b]pyridin-6-yl)-pyrimidin-2-ylamine] was tested. Which Ki did it give?
**A.** Its Ki is 10 nM.

**Q.** Nc1nc(C2CCCC2)cc(N2CC3CCCNC3C2)n1 (stereo not drawn) [Example 7, 4-Cyclopentyl-6-(cis-octahydro-pyrrolo[3,4-b]pyridin-6-yl)-pyrimidin-2-ylamine] was tested. Which Ki did it give?
**A.** Its Ki is 2 nM.

**Q.** Nc1nc(C2CCC2)cc(N2C[C@H]3CCCN[C@H]3C2)n1 [Example 51, (R,R)-(4-Cyclobutyl-6-cis-octahydro-pyrrolo[3,4-b]pyridin-6-yl)-pyrimidin-2-ylamine] was tested. Which Ki did it give?
**A.** The Ki was 3 nM.

**Q.** Nc1nc(C2CCCCC2)cc(N2C[C@H]3CCCN[C@H]3C2)n1 [Example 55, (R,R)-4-Cyclohexyl-6-(octahydro-pyrrolo[3,4-b]pyridin-6-yl)-pyrimidin-2-ylamine] was tested. Which Ki did it give?
**A.** Its Ki is 1 nM.

**Q.** With CCc1cc(N2CCNCC2)nc(N)n1 [Example 33, 4-Ethyl-6-piperazin-1-yl-pyrimidin-2-ylamine] as the molecule, how does the Ki read?
**A.** Its Ki is 10 nM.

**Q.** With Nc1nc2c(c(N3CC4CCCNC4C3)n1)CCCC2 (stereo not drawn) [Example 71, 4-(cis-Octahydro-pyrrolo[3,4-b]pyridin-6-yl)-5,6,7,8-tetrahydro-quinazolin-2-ylamine] as the molecule, how does the Ki read?
**A.** The Ki was 5 nM.

Same assay, conditions: Table 2, data marked with an asterisk (*): obtained by the cell harvester method; [3H] histamine competition binding, SK-N-MC membranes

**Q.** CC(C)(C)c1cc(N2C[C@H]3CNC[C@H]3C2)nc(N)n1 [Example 132, 4-tert-Butyl-6-(cis-hexahydro-pyrrolo[3,4-c]pyrrol-2-yl)-pyrimidin-2-ylamine] was tested. Which Ki did it give?
**A.** Its Ki is 356 nM.

**Q.** For CCCCc1nc(N)nc(N2CC(N)C2)c1OC [Example 103, 4-(3-Amino-azetidin-1-yl)-6-butyl-5-methoxy-pyrimidin-2-ylamine], which Ki is on record?
**A.** Its Ki is 22 nM.

**Q.** Which Ki does the source give for CCCCc1nc(N)nc(N2CC[C@@H](N)C2)c1OC [Example 104, (R)-4-(3-Amino-pyrrolidin-1-yl)-6-butyl-5-methoxy-pyrimidin-2-ylamine] here?
**A.** The Ki was 96 nM.

**Q.** With CC(C)c1cc(N2CCN(C)CC2)nc(N)n1 [Example 95, 4-Isopropyl-6-(4-methyl-piperazin-1-yl)-pyrimidin-2-ylamine] as the molecule, how does the Ki read?
**A.** The Ki was 8 nM.

Same assay, conditions: Table 2; [3H] histamine competition binding, membranes of SK-N-MC cells transfected with human H4 receptor; average of results

**Q.** How did the Ki turn out when Cc1nc(N)nc(N(C)CCN)c1F [Example 203, N^4-(2-Amino-ethyl)-5-fluoro-6,N^4-dimethyl-pyrimidine-2,4-diamine] was run?
**A.** Its Ki is 4230 nM.

**Q.** Which Ki does the source give for NCCNc1cc(C2Cc3ccccc3C2)nc(N)n1 [Example 168, N^4-(2-Amino-ethyl)-6-indan-2-yl-pyrimidine-2,4-diamine] here?
**A.** The Ki was 46 nM.

**Q.** With CN1CCN(c2nc(N)nc3c2COCC3)CC1 [Example 96, 4-(4-Methyl-piperazin-1-yl)-7,8-dihydro-5H-pyrano[4,3-d]pyrimidin-2-ylamine] as the molecule, how does the Ki read?
**A.** The Ki was 35 nM.

**Q.** How did the Ki turn out when COCc1cc(N2CC[C@H](N)C2)nc(N)n1 [Example 118, (S)-4-(3-Amino-pyrrolidin-1-yl)-6-methoxymethyl-pyrimidin-2-ylamine] was run?
**A.** The Ki was 242 nM.

**Q.** How did the Ki turn out when CC(C)c1cc(N2CC3NCCOC3C2)nc(N)n1 (single isomer, unassigned) [Example 93, 4-(cis-Hexahydro-pyrrolo[3,4-b][1,4]oxazin-6-yl)-6-isopropyl-pyrimidin-2-ylamine] was run?
**A.** The Ki was 481 nM.

**Q.** CN[C@@H]1CCN(c2cc(C3Cc4ccccc4O3)nc(N)n2)C1 (stereo partly drawn) [Example 169, (R)-4-(2,3-Dihydro-benzofuran-2-yl)-6-(3-methylamino-pyrrolidin-1-yl)-pyrimidin-2-ylamine] was tested. Which Ki did it give?
**A.** The Ki was 396 nM.

**Q.** CN(CCN)c1cc(C2CCOCC2)nc(N)n1 [Example 177, N^4-(2-Amino-ethyl)-N^4-methyl-6-(tetrahydro-pyran-4-yl)-pyrimidine-2,4-diamine] was tested. Which Ki did it give?
**A.** The Ki was 1030 nM.

**Q.** How did the Ki turn out when Nc1nc2c(c(N3CCNCC3)n1)COCC2 [Example 100, 4-piperazin-1-yl-7,8-dihydro-5H-pyrano[4,3-d]pyrimidin-2-ylamine] was run?
**A.** Its Ki is 262 nM.

**Q.** With CCCCc1nc(N)nc(NCCN)c1OC [Example 110, N^4-(2-Amino-ethyl)-6-butyl-5-methoxy-pyrimidine-2,4-diamine] as the molecule, how does the Ki read?
**A.** Its Ki is 80 nM.

**Q.** With Nc1nc(Cc2ccc(Cl)cc2)cc(N2CC[C@@H](N)C2)n1 [Example 235, (R)-4-(3-Amino-pyrrolidin-1-yl)-6-(4-chloro-benzyl)-pyrimidin-2-ylamine] as the molecule, how does the Ki read?
**A.** Its Ki is 140 nM.

**Q.** For CC1(c2cc(N3CC[C@@H](N)C3)nc(N)n2)CCOCC1 [Example 174, (R)-4-(3-Amino-pyrrolidin-1-yl)-6-(4-methyl-tetrahydro-pyran-4-yl)-pyrimidin-2-ylamine], which Ki is on record?
**A.** The Ki was 138 nM.

**Q.** How did the Ki turn out when CN1CCN(c2cc(CCC(F)(F)F)nc(N)n2)CC1 [Example 181, 4-(4-Methyl-piperazin-1-yl)-6-(3,3,3-trifluoro-propyl)-pyrimidin-2-ylamine] was run?
**A.** Its Ki is 8 nM.

**Q.** For CN1CCN(c2cc(C3CC3c3ccccc3)nc(N)n2)CC1 (stereo not drawn) [Example 158, 4-(4-Methyl-piperazin-1-yl)-6-(trans-2-phenyl-cyclopropyl)-pyrimidin-2-ylamine], which Ki is on record?
**A.** Its Ki is 8 nM.

**Q.** COc1c(C2CCCC2)nc(N)nc1N1CCCNCC1 [Example 112, 4-Cyclopentyl-6-[1,4]diazepan-1-yl-5-methoxy-pyrimidin-2-ylamine] was tested. Which Ki did it give?
**A.** Its Ki is 46 nM.

**Q.** How did the Ki turn out when CCCCc1nc(N)nc(N2CC[C@H](N)C2)c1OC [Example 105, (S)-4-(3-Amino-pyrrolidin-1-yl)-6-butyl-5-methoxy-pyrimidin-2-ylamine] was run?
**A.** The Ki was 103 nM.

**Q.** How did the Ki turn out when Nc1nc(CC2CCCO2)cc(N2CC3CCCNC3C2)n1 (stereo not drawn) [Example 231, 4-(cis-Octahydro-pyrrolo[3,4-b]pyridin-6-yl)-6-(tetrahydro-furan-2-ylmethyl)-pyrimidin-2-ylamine] was run?
**A.** The Ki was 59 nM.

**Q.** How did the Ki turn out when Nc1nc(Cc2ccc(Cl)cc2)cc(N2CCNCC2)n1 [Example 233, 4-(4-Chloro-benzyl)-6-piperazin-1-yl-pyrimidin-2-ylamine] was run?
**A.** The Ki was 12 nM.

**Q.** For CN[C@@H]1CCN(c2cc(CCC(F)(F)F)nc(N)n2)C1 [Example 183, (R)-4-(3-Methylamino-pyrrolidin-1-yl)-6-(3,3,3-trifluoro-propyl)-pyrimidin-2-ylamine], which Ki is on record?
**A.** Its Ki is 16 nM.

**Q.** Nc1nc(C2Cc3ccccc3C2)cc(N2CC[C@@H](N)C2)n1 [Example 162, (R)-4-(3-Amino-pyrrolidin-1-yl)-6-indan-2-yl-pyrimidin-2-ylamine] was tested. Which Ki did it give?
**A.** Its Ki is 5 nM.

**Q.** CCOCc1cc(N2CCN(C)CC2)nc(N)n1 [Example 239, 4-Ethyoxymethyl-6-(4-methyl-piperazin-1-yl)-pyrimidin-2-ylamine] was tested. Which Ki did it give?
**A.** The Ki was 29 nM.

**Q.** How did the Ki turn out when CN[C@@H]1CCN(c2cc(Cc3ccsc3)nc(N)n2)C1 [Example 208, (R)-4-(3-Methylamino-pyrrolidin-1-yl)-6-thiophen-3-ylmethyl-pyrimidin-2-ylamine] was run?
**A.** Its Ki is 8 nM.

**Q.** How did the Ki turn out when CCCCc1cc(N2C[C@H]3CN(C)C[C@H]3C2)nc(N)n1 [Example 139, 4-Butyl-6-(cis-5-methyl-hexahydro-pyrrolo[3,4-c]pyrrol-2-yl)-pyrimidin-2-ylamine] was run?
**A.** The Ki was 138 nM.

**Q.** Which Ki does the source give for Nc1nc(Cc2cccs2)cc(N2CC[C@@H](N)C2)n1 [Example 216, (R)-4-(3-Amino-pyrrolidin-1-yl)-6-thiophen-2-ylmethyl-pyrimidin-2-ylamine] here?
**A.** The Ki was 32 nM.

**Q.** With Cc1nc(N)nc(N2CC3CCCNC3C2)c1F (centres unmarked) [Example 200, 5-Fluoro-4-methyl-6-(octahydro-pyrrolo[3,4-b]pyridin-6-yl)-pyrimidin-2-ylamine] as the molecule, how does the Ki read?
**A.** Its Ki is 235 nM.

**Q.** COCc1cc(N2CC[C@@H](N)C2)nc(N)n1 [Example 222, (R)-4-(3-Amino-pyrrolidin-1-yl)-6-methoxymethyl-pyrimidin-2-ylamine] was tested. Which Ki did it give?
**A.** The Ki was 23 nM.

**Q.** With COc1c(C2CCCC2)nc(N)nc1N1CCN(C)CC1 [Example 185, 4-Cyclopentyl-5-methoxy-6-(4-methyl-piperazin-1-yl)-pyrimidin-2-ylamine] as the molecule, how does the Ki read?
**A.** The Ki was 300 nM.

**Q.** Nc1nc(CC2CCCO2)cc(N2CCNCC2)n1 (centres unmarked) [Example 230, 4-piperazin-1-yl-6-(tetrahydro-furan-2-ylmethyl)-pyrimidin-2-ylamine] was tested. Which Ki did it give?
**A.** The Ki was 25 nM.

**Q.** With Nc1nc(C2CC2)cc(N2CCNCC2)n1 [Example 121, 4-Cyclopropyl-6-piperazin-1-yl-pyrimidin-2-ylamine] as the molecule, how does the Ki read?
**A.** Its Ki is 3 nM.

**Q.** CN[C@@H]1CCN(c2cc(Cc3ccncc3)nc(N)n2)C1 [Example 205, (R)-4-(3-Methylamino-pyrrolidin-1-yl)-6-pyridin-4-ylmethyl-pyrimidin-2-ylamine] was tested. Which Ki did it give?
**A.** The Ki was 230 nM.

**Q.** For CN[C@@H]1CCN(c2cc(CC3CCCO3)nc(N)n2)C1 (stereo partly drawn) [Example 228, (R)-4-(3-Methylamino-pyrrolidin-1-yl)-6-(tetrahydro-furan-2-ylmethyl)-pyrimidin-2-ylamine], which Ki is on record?
**A.** The Ki was 91 nM.

**Q.** For Nc1nc2c(c(N3CC[C@@H](N)C3)n1)COCC2 [Example 98, (R)-4-(3-Amino-pyrrolidin-1-yl)-7,8-dihydro-5H-pyrano[4,3-d]pyrimidin-2-ylamine], which Ki is on record?
**A.** The Ki was 298 nM.
